Source: patent US20050250837A1, “Use of C-Raf inhibitors for the treatment of neurodegenerative diseases” (priority 2002, published 2005)

What was measured:
C-Raf = C-Raf (Homo sapiens, UniProt P04049); assay: In vitro kinase assay, purified kinase (Upstate Kinase Profiling); assay type: biochemical
CDK1/cyclinB = CDK1/cyclinB (Homo sapiens, UniProt P06493); assay: as above; assay type: biochemical; further: ATP 10 µM
Text: (§1) (Lackey et al., 2000). […] A number of reports have implicated JNKs in the promotion of neuronal apoptosis both in vivo and in cell culture systems (Coffey et al., 2002). Although all three JNK proteins are expressed in neurons, the phosphorylation of c-jun is believed to be mediated by JNK2 or JNK3 (Bruckner et al., 2001; Bruckner and Estus, 2002; Coffey et al., 2002). […] In apoptotic neurons, JNK activation is mediated primarily by MKK7 (Eilers et al., 1998; Trotter et al., 2002).
(§2) In general, in vitro kinase assays were performed using purified kinase and synthetic substrates under standard conditions using the Kinase Profiling service of Upstate Biotechnology. Briefly, for each assay 5-10 mU of purified kinase was used. […] Kinase activity was quantified by measuring ^33P incorporation by spotting an aliquot on P30 filters, washing in 50 mM phosphoric acid and scintillation counting. The buffer composition for C-Raf, JNK1, JNK2, JNK3, MEK1, MKK6, MKK7 was 50 mM Tris pH7.5, 0.1 mM EGTA, 10 mM Mg acetate and [γ-^33P-ATP]. The peptide substrates used were as follows: For C-Raf, 0.66 mg/ml MBP; for cdks, 0.1 mg/ml histone H1; for JNKs, 3 uM ATF2; for MEK1, 1 uM MAPK2; for MKK6, 1 uM of SAPK2a and for MKK7, 2 uM JNK1α.

CDK2/cyclinA = CDK2/cyclinA (Homo sapiens, UniProt P24941); assay: as above; assay type: biochemical; further: ATP 10 µM
Text: as §1, §2

CDK6/cyclinD3 = CDK6/cyclinD3 (Homo sapiens, UniProt Q00534); assay: as above; assay type: biochemical; further: ATP 10 µM
Text: as §1, §2

JNK3 = assay: as above; assay type: biochemical; conditions: 1 uM GW5074, ATP 10 uM; percentage of control without GW5074, mean +/- SD
Text: as §1, §2

MKK7 = MKK7 (Homo sapiens, UniProt O14733); assay: as above; assay type: biochemical; further: ATP 10 µM
Text: as §1, §2

ERK 1/2 = ERK 1/2 phosphorylation in neuronal cultures, Western blot; assay type: cell-based, rat; conditions: LK plus GW5074, 1 or 3 hours
Text: Activation of all three Raf proteins results in activation of MEK and ERK.
Survival of cerebellar granule neurons can be maintained by BDNF and this effect of BDNF is mediated by the Raf-MEK-ERK signaling pathway (Bonni et al., 1999). The Raf-MEK-ERK pathway is also involved in promoting survival of other neuronal and normeuronal cell types. A potent blocker of the Raf-MEK-ERK pathway is PD98059 (Alessi et al., 1995). In paradigms in which the Raf-MEK-ERK pathway mediates neuronal survival, such as BDNF-treated cerebellar granule neurons, the presence of […] blocks survival (Bonni et al., 1999). […] Lysates from the cultures were subjected to Western blotting using an antibody specific for phospho-ERK.
For whole-cell lysates, the culture medium was discarded, the neurons washed twice with ice-cold phosphate-buffered saline (PBS), and lysed in lysis buffer (1% Triton, 20 mM Tris-HCl (pH 7.5), 150 mM NaCl, 1 mM Na2EDTA, 1 mM EGTA, 2.5 mM sodium pyrophosphate, 1 mM beta-glycerophosphate, 1 mM Na3VO4, 1 μg/ml leupeptin and 1× protease inhibitor mixture). Protein concentrations were measured using a Bradford protein assay kit (Bio-Rad), and equivalent amounts of protein were mixed with 6×SDS-PAGE sample buffer. […] After staining with Ponceau S to verify uniformity of protein loads/transfer, the membranes were analyzed for immunoreactivity. […]

NF-κB = NF-κB DNA-binding activity, gel mobility shift assay; assay type: cell-based, rat; conditions: LK + 1 uM GW5074, 6 hours
Method: Another molecule known to be important for neuronal survival is NF-κB. Although the precise mechanism has not been elucidated, the Raf is known to activate NF-κB in normeuronal cells via a MEK-ERK-independent mechanism (Foo and Nolan, 1999; Pearson et al., 2000). […] Viability was quantified 24 hours later and expressed as percentage of viability in HK.
One potential mediator of MEK-ERK-independent B-Raf signaling is NF-κB.
Nuclei from neuronal cultures were resuspended in buffer containing 20 mM HEPES pH 7.6, 50 mM KCl, 300 mM NaCl, 0.1 mM EDTA, 1 mM DTT, 0.1 mM PMSF, 10% glycerol, 1× protease inhibitor cocktail and extracted on ice for 30 min, followed by micro-centrifugation at 14,000 rpm for 10 min. The supernatants were collected as nuclear extracts. Concentrations of these nuclear extracts were determined by the Bradford method using reagents from Bio-Rad. Ten μg of each nuclear extract sample was incubated with 0.1 pmol of ^32P-labeled double-stranded KB binding oligonucleotide (5′-[…]-3′) identified as SEQ ID NO:1, or SP1 binding oligonucleotide (5′-[…]-3′) identified as SEQ ID NO:2, in buffer containing 1 μg of poly (d1-dC), 1 μg of BSA, 10 mM HEPES pH7.6, 0.5 mM DTT, 0.1 mM EDTA, 60 mM KCl, 0.2 mM PMSF, 5 mM MgCl2, and 12% glycerol at room temperature for 30 min. Samples were analyzed by 5% native polyacrylamide gel electrophoresis (PAGE) followed by autoradiography.

c-jun = c-jun phosphorylation (Ser63) and total c-jun, Western blot; assay type: cell-based, rat; conditions: LK + 1 uM GW5074, 1 and 3 hours
Method: In granule neurons, phosphorylation of c-jun occurs within 1 hour of LK treatment (Ham et al., 1995; Watson et al. 1998). […] The same blot was reprobed with an antibody against total c-jun (lower panel).
For whole-cell lysates, the culture medium was discarded, the neurons washed twice with ice-cold phosphate-buffered saline (PBS), and lysed in lysis buffer (1% Triton, 20 mM Tris-HCl (pH 7.5), 150 mM NaCl, 1 mM Na2EDTA, 1 mM EGTA, 2.5 mM sodium pyrophosphate, 1 mM beta-glycerophosphate, 1 mM Na3VO4, 1 μg/ml leupeptin and 1× protease inhibitor mixture). Protein concentrations were measured using a Bradford protein assay kit (Bio-Rad), and equivalent amounts of protein were mixed with 6×SDS-PAGE sample buffer. Following heating at 95° C. for 5 min, proteins were subjected to SDS-polyacrylamide gel electrophoresis and transferred electrophoretically to polyvinylidene difluoride membrane (PVDF; Bio Rad). After staining with Ponceau S to verify uniformity of protein loads/transfer, the membranes were analyzed for immunoreactivity. Incubation with primary antibodies was performed overnight at 4° C. and with secondary antibodies for 1 h at room temperature. Immunoreactivity was developed by enhanced chemiluminescence (ECL; Amersham) and visualized by autoradiography. All antibodies were from Cell Signaling.

cdk1 = cdk1 (Homo sapiens, UniProt P06493); conditions: Lackey et al., 2000; cited from earlier work
cdk2 = cdk2 (Homo sapiens, UniProt P24941); conditions: Lackey et al., 2000; cited from earlier work
c-src = c-src (Homo sapiens, UniProt P12931); conditions: Lackey et al., 2000; cited from earlier work
Sequence of c-src (P12931 whole entry, species assumed): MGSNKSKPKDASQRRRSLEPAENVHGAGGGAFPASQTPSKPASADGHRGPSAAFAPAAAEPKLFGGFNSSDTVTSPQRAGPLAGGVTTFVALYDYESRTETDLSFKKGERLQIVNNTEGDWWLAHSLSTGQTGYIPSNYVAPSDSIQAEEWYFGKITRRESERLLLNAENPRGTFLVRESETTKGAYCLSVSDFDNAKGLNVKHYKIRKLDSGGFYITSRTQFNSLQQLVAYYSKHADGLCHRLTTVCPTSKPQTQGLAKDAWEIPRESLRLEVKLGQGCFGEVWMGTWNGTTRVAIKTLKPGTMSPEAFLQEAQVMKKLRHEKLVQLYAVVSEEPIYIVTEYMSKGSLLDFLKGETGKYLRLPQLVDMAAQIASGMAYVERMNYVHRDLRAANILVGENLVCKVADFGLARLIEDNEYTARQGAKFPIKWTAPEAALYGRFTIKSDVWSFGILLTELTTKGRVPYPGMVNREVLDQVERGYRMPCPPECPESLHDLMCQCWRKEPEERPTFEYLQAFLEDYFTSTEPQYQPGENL

Sequence of CDK1/cyclinB (P06493 whole entry, species assumed): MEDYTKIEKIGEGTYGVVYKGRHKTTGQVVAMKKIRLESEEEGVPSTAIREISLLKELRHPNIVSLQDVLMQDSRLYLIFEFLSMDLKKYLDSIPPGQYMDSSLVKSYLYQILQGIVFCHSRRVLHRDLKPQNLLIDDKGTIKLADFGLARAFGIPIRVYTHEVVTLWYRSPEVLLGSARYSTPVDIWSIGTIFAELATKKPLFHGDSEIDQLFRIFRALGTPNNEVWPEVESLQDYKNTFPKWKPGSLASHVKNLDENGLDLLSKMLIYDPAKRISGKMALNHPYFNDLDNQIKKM
Sequence of CDK1/cyclinB (P14635 whole entry partner, species assumed): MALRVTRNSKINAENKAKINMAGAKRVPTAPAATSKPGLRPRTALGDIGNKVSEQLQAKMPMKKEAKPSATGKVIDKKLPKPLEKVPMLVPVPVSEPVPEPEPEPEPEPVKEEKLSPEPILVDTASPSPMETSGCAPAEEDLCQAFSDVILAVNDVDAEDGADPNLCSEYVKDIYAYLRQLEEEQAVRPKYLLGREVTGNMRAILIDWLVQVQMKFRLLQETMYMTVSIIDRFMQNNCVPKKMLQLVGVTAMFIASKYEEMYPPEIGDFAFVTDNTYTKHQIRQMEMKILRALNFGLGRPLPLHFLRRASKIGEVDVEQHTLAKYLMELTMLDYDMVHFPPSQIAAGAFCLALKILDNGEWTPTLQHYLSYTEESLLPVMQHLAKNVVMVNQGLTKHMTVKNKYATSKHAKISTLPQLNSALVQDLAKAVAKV
Sequence of cdk1 (P06493 whole entry, species assumed): as the sequence (P06493 whole entry, species assumed) above
Sequence of cdk1 (P14635 whole entry partner, species assumed): as the sequence (P14635 whole entry partner, species assumed) above
Sequence of CDK6/cyclinD3 (Q00534 whole entry, species assumed): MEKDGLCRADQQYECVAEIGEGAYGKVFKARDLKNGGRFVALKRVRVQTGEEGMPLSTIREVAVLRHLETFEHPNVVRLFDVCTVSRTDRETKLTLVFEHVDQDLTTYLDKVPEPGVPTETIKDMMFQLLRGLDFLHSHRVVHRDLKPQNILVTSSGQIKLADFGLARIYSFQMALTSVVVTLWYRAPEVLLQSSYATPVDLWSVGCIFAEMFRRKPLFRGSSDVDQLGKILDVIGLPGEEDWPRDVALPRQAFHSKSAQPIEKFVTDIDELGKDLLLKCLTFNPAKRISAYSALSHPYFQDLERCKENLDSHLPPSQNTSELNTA
Sequence of CDK6/cyclinD3 (P30281 whole entry partner, species assumed): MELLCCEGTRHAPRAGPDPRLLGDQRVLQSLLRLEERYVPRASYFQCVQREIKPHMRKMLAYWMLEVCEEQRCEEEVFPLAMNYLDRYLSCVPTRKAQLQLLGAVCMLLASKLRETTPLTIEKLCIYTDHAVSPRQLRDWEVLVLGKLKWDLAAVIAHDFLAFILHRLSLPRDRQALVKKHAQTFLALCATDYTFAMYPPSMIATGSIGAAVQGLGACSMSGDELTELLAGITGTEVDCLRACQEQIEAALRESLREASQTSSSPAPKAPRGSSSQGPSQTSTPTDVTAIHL
Sequence of MKK7 (O14733 whole entry, species assumed): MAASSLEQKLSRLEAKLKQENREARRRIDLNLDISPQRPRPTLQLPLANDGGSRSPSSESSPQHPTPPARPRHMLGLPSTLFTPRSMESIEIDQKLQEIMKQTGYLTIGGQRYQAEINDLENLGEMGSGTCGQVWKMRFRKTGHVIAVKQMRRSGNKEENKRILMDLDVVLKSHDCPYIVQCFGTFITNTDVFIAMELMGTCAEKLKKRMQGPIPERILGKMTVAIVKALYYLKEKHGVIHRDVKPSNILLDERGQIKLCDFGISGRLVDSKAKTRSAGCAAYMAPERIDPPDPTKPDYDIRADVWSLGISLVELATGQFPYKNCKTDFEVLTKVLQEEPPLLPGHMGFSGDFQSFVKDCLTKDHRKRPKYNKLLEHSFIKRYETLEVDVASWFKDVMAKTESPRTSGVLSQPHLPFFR
Sequence of C-Raf (P04049 whole entry, species assumed): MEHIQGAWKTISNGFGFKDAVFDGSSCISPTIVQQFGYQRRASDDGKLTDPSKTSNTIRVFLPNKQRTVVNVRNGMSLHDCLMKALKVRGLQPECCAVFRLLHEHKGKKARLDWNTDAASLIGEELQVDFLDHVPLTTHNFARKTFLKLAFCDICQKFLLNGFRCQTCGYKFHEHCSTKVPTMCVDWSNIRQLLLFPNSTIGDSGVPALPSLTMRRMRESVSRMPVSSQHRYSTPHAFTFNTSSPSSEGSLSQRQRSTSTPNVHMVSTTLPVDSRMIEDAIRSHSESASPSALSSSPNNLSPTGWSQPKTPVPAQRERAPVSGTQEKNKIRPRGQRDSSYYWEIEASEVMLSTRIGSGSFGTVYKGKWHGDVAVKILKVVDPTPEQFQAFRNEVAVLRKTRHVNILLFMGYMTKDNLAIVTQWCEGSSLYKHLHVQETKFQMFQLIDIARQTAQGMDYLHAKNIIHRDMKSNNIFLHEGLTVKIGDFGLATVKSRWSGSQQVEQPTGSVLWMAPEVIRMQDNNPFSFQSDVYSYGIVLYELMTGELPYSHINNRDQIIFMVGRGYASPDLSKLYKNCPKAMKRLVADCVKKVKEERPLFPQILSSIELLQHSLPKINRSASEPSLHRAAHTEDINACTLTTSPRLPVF

Compound: O=C1Nc2ccc(I)cc2C1=Cc1cc(Br)c(O)c(Br)c1 [GW5074, 5-Iodo-3-[(3,5-dibromo-4-hydroxyphenyl)methylene]-2-indolinone]
- activity at 1 µM (C-Raf): 3%
- activity at 1 µM (CDK1/cyclinB): 90 ± 12%
- activity at 1 µM (CDK2/cyclinA): 99%
- activity at 1 µM (CDK6/cyclinD3): 98 ± 1%
- % ACTIVITY JNK3 (JNK3): 89 ± 9%
- activity at 1 µM (MKK7): 104 ± 8%
- phosphorylation of ERK 1/2 (ERK 1/2): increase in the phosphorylation of ERK 1/2
- NF-κB binding activity in LK (NF-κB): downregulation of NF-κB binding activity is prevented
- LK-induced c-jun phosphorylation and synthesis (c-jun): prevents LK-induced c-jun phosphorylation and its increased synthesis
- effect on activity of cdk1 (cdk1): no effect
- effect on activity of cdk2 (cdk2): no effect
- effect on activity of c-src (c-src): no effect
